Results from patent US10035804B2, “Spirodiamine derivatives as aldosterone synthase inhibitors” (Hoffmann-La Roche Inc., priority 2014, dated 2018).
pEC50: −log10 of the molar value.

What was measured:
human CYP11B1 = human CYP11B1 (Homo sapiens (Human), UniProt P15538); assay: G-402 cellular enzyme assay, human CYP11B1 (cortisol release); assay type: cell-based; conditions: G-402 cells expressing human CYP11B1; 1 μM Deoxycortisol; cortisol in supernatant after 16 h
Description: (§1) Herein we identified the use of the G-402 cell line as a host cell to ectopically express (transiently or stably) enzymes of the CYP11 family. Specifically we developed stable G-402 cells expressing ectopically human CYP11B1, human CYP11B2, human CYP11A1, cynmolgus CYP11B1 or cynomolgus CYP11B2 enzyme activity. Importantly the identified cell line G-402 expresses co-factors (adrenodoxin and adrenodoxin reductase) important for the activity of the CYP11 family and no relevant enzyme activity of the CYP11 family (in comparison to H295R cells) was detected in these cells. Therefore the G-402 cell line is uniquely suited as a host cell for the ectopic expression of enzymes from the CYP11 family.
(§2) G-402 cells can be obtained from ATCC (CRL-1440) and were originally derived from a renal leiomyoblastoma.
(§3) The expression plasmids contains the ORF for either human/cyno CYP11B1 or CYP11B2 under the control of a suitable promoter (CMV-promoter) and a suitable resistance marker (neomycin). Using standard techniques the expression plasmid is transfected into G-402 cells and these cells are then selected for expressing the given resistance markers. Individual cell-clones are then selected and assessed for displaying the desired enzymatic activity using 11-Deoxycorticosterone (Cyp11B2) or 11-Deoxycortisol (Cyp11B1) as a substrate.
(§4) G-402 cells expressing CYP11 constructs were established as described above and maintained in McCoy's 5a Medium Modified, ATCC Catalog No. 30-2007 containing 10% FCS and 400 μg/ml G418 (Geneticin) at 37° C. under an atmosphere of 5% CO2/95% air. Cellular enzyme assays were performed in DMEM/F12 medium containing 2.5% charcoal treated FCS and appropriate concentration of substrate (0.3-10 uM 11-Deoxycorticosterone, 11-Deoxycortisol or Corticosterone). For assaying enzymatic activity, cells were plated onto 96 well plates and incubated for 16 h. An aliquot of the supernatant is then transferred and analyzed for the concentration of the expected product (Aldosterone for CYP11B2; Cortisol for CYP11B1). The concentrations of these steroids can be determined using HTRF assays from CisBio analyzing either Aldosterone or Cortisol.
(§5) Inhibition of the release of produced steroids can be used as a measure of the respective enzyme inhibition by test compounds added during the cellular enzyme assay. The dose dependent inhibition of enzymatic activity by a compound is calculated by means of plotting added inhibitor concentrations (x-axes) vs. measured steroid/product level (y-axes). The inhibition is then calculated by fitting the following 4-parameter sigmoidal function (Morgan-Mercer-Flodin (MMF) model) to the raw data points using the least squares method:
(§6) [formula] wherein, A is the maximum y value, B is the EC50 factor determined using XLFit, C is the minimum y value and D is the slope value.
(§7) EC50 values for compounds claimed herein were tested with the G402-based assay system described. Cyp11B2 enzyme activity was tested in presence of 1 μM Deoxycorticosterone and variable amounts of inhibitors; Cyp11B1 enzyme activity was tested in presence of 1 μM Deoxycortisol and variable amounts of inhibitors.

human CYP11B2 = human CYP11B2 (Homo sapiens (Human), UniProt P19099); assay: G-402 cellular enzyme assay, human CYP11B2 (aldosterone release); assay type: cell-based; conditions: G-402 cells expressing human CYP11B2; 1 μM Deoxycorticosterone; aldosterone in supernatant after 16 h
Chain of human CYP11B2 (P19099 25-503): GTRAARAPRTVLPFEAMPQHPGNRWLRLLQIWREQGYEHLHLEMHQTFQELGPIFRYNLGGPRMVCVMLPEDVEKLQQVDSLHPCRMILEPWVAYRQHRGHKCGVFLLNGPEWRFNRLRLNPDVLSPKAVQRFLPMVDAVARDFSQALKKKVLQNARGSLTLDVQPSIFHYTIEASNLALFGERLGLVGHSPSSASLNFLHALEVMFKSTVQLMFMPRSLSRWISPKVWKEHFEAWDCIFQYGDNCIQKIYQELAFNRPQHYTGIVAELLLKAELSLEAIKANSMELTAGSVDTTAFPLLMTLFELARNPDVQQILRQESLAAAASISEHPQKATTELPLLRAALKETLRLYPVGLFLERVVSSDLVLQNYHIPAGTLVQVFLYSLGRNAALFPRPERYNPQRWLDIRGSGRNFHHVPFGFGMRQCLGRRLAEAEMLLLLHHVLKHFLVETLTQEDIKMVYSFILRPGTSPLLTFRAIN
Description: as §1, §2, §3, §4, §5, §6, §7

Chain of human CYP11B1 (P15538 25-503): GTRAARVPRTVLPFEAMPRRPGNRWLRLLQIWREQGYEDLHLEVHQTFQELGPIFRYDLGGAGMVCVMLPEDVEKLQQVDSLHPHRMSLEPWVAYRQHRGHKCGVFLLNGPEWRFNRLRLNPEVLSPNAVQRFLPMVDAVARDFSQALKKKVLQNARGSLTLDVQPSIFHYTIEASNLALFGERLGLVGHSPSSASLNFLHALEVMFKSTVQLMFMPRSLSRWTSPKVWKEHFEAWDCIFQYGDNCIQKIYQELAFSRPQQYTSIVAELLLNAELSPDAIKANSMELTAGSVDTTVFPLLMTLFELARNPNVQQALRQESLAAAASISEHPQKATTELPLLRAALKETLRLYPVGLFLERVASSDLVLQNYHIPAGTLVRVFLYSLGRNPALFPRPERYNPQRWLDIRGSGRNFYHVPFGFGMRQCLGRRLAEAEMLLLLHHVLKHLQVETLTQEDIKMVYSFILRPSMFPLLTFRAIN

| Compound | pEC50 (human CYP11B1) | pEC50 (human CYP11B2) |
| --- | --- | --- |
| COc1ccc2c(n1)C(C)(C)N(c1cncc(N3CC4(CN(C(=O)c5ccnn5C)C4)C3)c1)C2=O [Example 17, 2-Methoxy-7,7-dimethyl-6-[5-[2-(2-methylpyrazole-3-carbonyl)-2,6-diazaspiro[3.3]heptan-6-yl]-3-pyridyl]pyrrolo[3,4-b]pyridin-5-one] | 7.48 | 9.05 |
| CC1c2cc(Cl)ccc2C(=O)N1c1cncc(N2CC3(CN(C(=O)c4cnn(C)c4)C3)C2)c1 (stereo not drawn) [Example 18, 5-Chloro-3-methyl-2-[5-[2-(1-methylpyrazole-4-carbonyl)-2,6-diazaspiro[3.3]heptan-6-yl]-3-pyridyl]isoindolin-1-one] | 7.78 | 11.11 |
| Cn1cc(C(=O)N2CC3(C2)CN(c2cncc(N4C(=O)c5ccc(Cl)cc5C45CC5)c2)C3)cn1 [Example 19, 5′-Chloro-2′-[5-[2-(1-methylpyrazole-4-carbonyl)-2,6-diazaspiro[3.3]heptan-6-yl]-3-pyridyl]spiro[cyclopropane-1,3′-isoindoline]-1′-one] | 8.11 | 11.54 |
| Cc1ccncc1C(=O)N1CC2(C1)CN(c1cncc(N3C(=O)c4ccc(Cl)cc4C34CC4)c1)C2 [Example 20, 5′-Chloro-2′-[5-[2-(4-methylpyridine-3-carbonyl)-2,6-diazaspiro[3.3]heptan-6-yl]-3-pyridyl]spiro[cyclopropane-1,3′-isoindoline]-1′-one] | 7.70 | 10.71 |
| Cn1nccc1C(=O)N1CC2(C1)CN(c1cncc(N3C(=O)c4ccc(Cl)cc4C34CC4)c1)C2 [Example 21, 5′-Chloro-2′-[5-[2-(2-methylpyrazole-3-carbonyl)-2,6-diazaspiro[3.3]heptan-6-yl]-3-pyridyl]spiro[cyclopropane-1,3′-isoindoline]-1′-one] | < 7.52 | 9.53 |
| COc1ccncc1C(=O)N1CC2(C1)CN(c1cncc(N3C(=O)c4ccc(Cl)cc4C3(C)C)c1)C2 [Example 24, 5-Chloro-2-[5-[2-(4-methoxypyridine-3-carbonyl)-2,6-diazaspiro[3.3]heptan-6-yl]-3-pyridyl]-3,3-dimethyl-isoindolin-1-one] | 7.77 | 10.35 |
| Cc1c(C(=O)N2CC3(C2)CN(c2cncc(N4C(=O)c5ccc(Cl)cc5C4(C)C)c2)C3)cnn1C [Example 26, 5-Chloro-2-[5-[2-(1,5-dimethylpyrazole-4-carbonyl)-2,6-diazaspiro[3.3]heptan-6-yl]-3-pyridyl]-3,3-dimethyl-isoindolin-1-one] | 7.45 | 10.11 |
| Cc1nocc1C(=O)N1CC2(C1)CN(c1cncc(N3C(=O)c4ccc(Cl)cc4C3(C)C)c1)C2 [Example 27, 5-Chloro-3,3-dimethyl-2-[5-[2-(3-methylisoxazole-4-carbonyl)-2,6-diazaspiro[3.3]heptan-6-yl]-3-pyridyl]isoindolin-1-one] | 7.85 | 9.98 |
| Cc1cncc(C(=O)N2CC3(C2)CN(c2cncc(N4C(=O)c5ccc(Cl)cc5C4(C)C)c2)C3)n1 [Example 28, 5-Chloro-3,3-dimethyl-2-[5-[2-(6-methylpyrazine-2-carbonyl)-2,6-diazaspiro[3.3]heptan-6-yl]-3-pyridyl]isoindolin-1-one] | 9.19 | 10.24 |
| Cc1ncncc1C(=O)N1CC2(C1)CN(c1cncc(N3C(=O)c4ccc(Cl)cc4C3(C)C)c1)C2 [Example 29, 5-Chloro-3,3-dimethyl-2-[5-[2-(4-methylpyrimidine-5-carbonyl)-2,6-diazaspiro[3.3]heptan-6-yl]-3-pyridyl]isoindolin-1-one] | < 7.52 | 10.13 |
| Cc1cnc(C(=O)N2CC3(C2)CN(c2cncc(N4C(=O)c5ccc(Cl)cc5C4(C)C)c2)C3)cn1 [Example 30, 5-Chloro-3,3-dimethyl-2-[5-[2-(5-methylpyrazine-2-carbonyl)-2,6-diazaspiro[3.3]heptan-6-yl]-3-pyridyl]isoindolin-1-one] | 8.43 | 10.34 |
| Cc1cc(C(=O)N2CC3(C2)CN(c2cncc(N4C(=O)c5ccc(Cl)cc5C4(C)C)c2)C3)n(C)n1 [Example 31, 5-Chloro-2-[5-[2-(2,5-dimethylpyrazole-3-carbonyl)-2,6-diazaspiro[3.3]heptan-6-yl]-3-pyridyl]-3,3-dimethyl-isoindolin-1-one] | 8.19 | 9.81 |
| Cc1ocnc1C(=O)N1CC2(C1)CN(c1cncc(N3C(=O)c4ccc(Cl)cc4C3(C)C)c1)C2 [Example 32, 5-Chloro-3,3-dimethyl-2-[5-[2-(5-methyloxazole-4-carbonyl)-2,6-diazaspiro[3.3]heptan-6-yl]-3-pyridyl]isoindolin-1-one] | 8.27 | 10.83 |
| CC1(C)c2cc(Cl)ccc2C(=O)N1c1cncc(N2CC3(CN(C(=O)c4ncccn4)C3)C2)c1 [Example 33, 5-Chloro-3,3-dimethyl-2-[5-[2-(pyrimidine-2-carbonyl)-2,6-diazaspiro[3.3]heptan-6-yl]-3-pyridyl]isoindolin-1-one] | 8.76 | 10.30 |
| Cc1cnc(C(=O)N2CC3(C2)CN(c2cncc(N4C(=O)c5ccc(Cl)cc5C4(C)C)c2)C3)nc1 [Example 34, 5-Chloro-3,3-dimethyl-2-[5-[2-(5-methylpyrimidine-2-carbonyl)-2,6-diazaspiro[3.3]heptan-6-yl]-3-pyridyl]isoindolin-1-one] | 8.02 | 10.01 |
| Cn1cc(C(=O)N2CC3(C2)CN(c2cncc(N4C(=O)c5ccc(Cl)cc5C4(C)C)c2)C3)c(C(F)F)n1 [Example 35, 5-Chloro-2-[5-[2-[3-(difluoromethyl)-1-methyl-pyrazole-4-carbonyl]-2,6-diazaspiro[3.3]heptan-6-yl]-3-pyridyl]-3,3-dimethyl-isoindolin-1-one] | 7.53 | 9.48 |
| CC1(C)c2cc(Cl)ccc2C(=O)N1c1cncc(N2CC3(CN(C(=O)c4cncc(C#N)c4)C3)C2)c1 [Example 36, 5-[6-[5-(6-Chloro-1,1-dimethyl-3-oxo-isoindolin-2-yl)-3-pyridyl]-2,6-diazaspiro[3.3]heptane-2-carbonyl]pyridine-3-carbonitrile] | 7.51 | 10.34 |
| COc1nccnc1C(=O)N1CC2(C1)CN(c1cncc(N3C(=O)c4ccc(Cl)cc4C3(C)C)c1)C2 [Example 37, 5-Chloro-2-[5-[2-(3-methoxypyrazine-2-carbonyl)-2,6-diazaspiro[3.3]heptan-6-yl]-3-pyridyl]-3,3-dimethyl-isoindolin-1-one] | 7.79 | 10.12 |
| CC1(C)c2cc(Cl)ccc2C(=O)N1c1cncc(N2CC3(CN(C(=O)c4cnccn4)C3)C2)c1 [Example 38, 5-Chloro-3,3-dimethyl-2-[5-[2-(pyrazine-2-carbonyl)-2,6-diazaspiro[3.3]heptan-6-yl]-3-pyridyl]isoindolin-1-one] | 8.64 | 10.57 |
| Cc1oncc1C(=O)N1CC2(C1)CN(c1cncc(N3C(=O)c4ccc(Cl)cc4C3(C)C)c1)C2 [Example 39, 5-Chloro-3,3-dimethyl-2-[5-[2-(5-methylisoxazole-4-carbonyl)-2,6-diazaspiro[3.3]heptan-6-yl]-3-pyridyl]isoindolin-1-one] | 8.01 | 10.55 |
| CC1(C)c2cc(Cl)ccc2C(=O)N1c1cncc(N2CC3(CN(C(=O)c4cncnc4)C3)C2)c1 [Example 40, 5-Chloro-3,3-dimethyl-2-[5-[2-(pyrimidine-5-carbonyl)-2,6-diazaspiro[3.3]heptan-6-yl]-3-pyridyl]isoindolin-1-one] | 7.92 | 10.27 |
